Data: PubChem BioAssay (NCI)
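Cells were grown in 96-well plates and exposed to each compound for 48 hours at five concentrations; endpoints were interpolated linearly between bracketing concentrations, or set to the highest concentration if not reached. TGI: concentration producing complete growth inhibition.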

Key:
Experiment in all cases: growth of human tumour cells (NCI), 48 h
[1] = test system: 786-0 renal
[2] = test system: A549 NSCLC
[3] = test system: ACHN renal
[4] = test system: CAKI-1 renal
[5] = test system: CCRF-CEM leukemia
[6] = test system: COLO 205 colon
[7] = test system: DLD-1 colon
[8] = test system: DMS 114 small cell lung
[9] = test system: DMS 273 small cell lung
[10] = test system: HCT-116 colon
[11] = test system: HCT-15 colon
[12] = test system: HL-60(TB) leukemia
[13] = test system: HOP-18 NSCLC
[14] = test system: HOP-62 NSCLC
[15] = test system: HT29 colon
[16] = test system: IGROV1 ovarian
[17] = test system: K-562 leukemia
[18] = test system: KM12 colon
[19] = test system: LOX IMVI melanoma
[20] = test system: LXFL 529 NSCLC
[21] = test system: M14 melanoma
[22] = test system: M19-MEL melanoma
[23] = test system: MALME-3M melanoma
[24] = test system: MOLT-4 leukemia
[25] = test system: NCI-H226 lung
[26] = test system: NCI-H23 lung
[27] = test system: NCI-H460 lung
[28] = test system: NCI-H522 lung
[29] = test system: OVCAR-4 ovarian
[30] = test system: OVCAR-5 ovarian
[31] = test system: OVCAR-8 ovarian
[32] = test system: RPMI-8226 leukemia
[33] = test system: RXF 393 renal
[34] = test system: SF-268 CNS
[35] = test system: SF-295 CNS
[36] = test system: SF-539 CNS
[37] = test system: SK-MEL-2 melanoma
[38] = test system: SK-MEL-28 melanoma
[39] = test system: SK-MEL-5 melanoma
[40] = test system: SK-OV-3 ovarian
[41] = test system: SN12C renal
[42] = test system: SNB-75 CNS
[43] = test system: SR leukemia
[44] = test system: SW-620 colon
[45] = test system: TK-10 renal
[46] = test system: U251 CNS
[47] = test system: UACC-257 melanoma
[48] = test system: UACC-62 melanoma
[49] = test system: UO-31 renal
[50] = test system: EKVX NSCLC
[51] = test system: HCC-2998 colon
[52] = test system: KM20L2 colon
[53] = test system: SNB-19 CNS
[54] = test system: XF 498 CNS
[55] = test system: A498 renal
[56] = test system: HOP-92 NSCLC
[57] = test system: OVCAR-3 ovarian
[58] = test system: SNB-78 CNS

[N-]=[N+]=Nc1cc(=O)n(-c2ccccc2)c2ccccc12
TGI [1]: > 100 µM | TGI [2]: > 100 µM | TGI [3]: > 100 µM | TGI [4]: > 100 µM | TGI [5]: > 100 µM | TGI [6]: > 100 µM | TGI [7]: > 100 µM | TGI [8]: > 100 µM | TGI [9]: > 100 µM | TGI [10]: > 100 µM | TGI [11]: > 100 µM | TGI [12]: > 100 µM | TGI [13]: > 100 µM | TGI [14]: > 100 µM | TGI [15]: > 100 µM | TGI [16]: > 100 µM | TGI [17]: > 100 µM | TGI [18]: > 100 µM | TGI [19]: > 100 µM | TGI [20]: > 100 µM | TGI [21]: > 100 µM | TGI [22]: > 100 µM | TGI [23]: > 100 µM | TGI [24]: > 100 µM | TGI [25]: > 100 µM | TGI [26]: > 100 µM | TGI [27]: > 100 µM | TGI [28]: > 100 µM | TGI [29]: > 100 µM | TGI [30]: > 100 µM | TGI [31]: > 100 µM | TGI [32]: > 100 µM | TGI [33]: > 100 µM | TGI [34]: > 100 µM | TGI [35]: > 100 µM | TGI [36]: > 100 µM | TGI [37]: > 100 µM | TGI [38]: > 100 µM | TGI [39]: > 100 µM | TGI [40]: > 100 µM | TGI [41]: > 100 µM | TGI [42]: > 100 µM | TGI [43]: > 100 µM | TGI [44]: > 100 µM | TGI [45]: > 100 µM | TGI [46]: > 100 µM | TGI [47]: > 100 µM | TGI [48]: > 100 µM | TGI [49]: > 100 µM

O=C1CC[C@H](NC(=O)Cc2ccccc2)C(=O)N1
TGI [1]: > 1250 µM | TGI [2]: > 1250 µM | TGI [3]: > 1250 µM | TGI [4]: > 1250 µM | TGI [5]: > 1250 µM | TGI [6]: > 1250 µM | TGI [7]: > 1250 µM | TGI [9]: > 1250 µM | TGI [50]: > 1250 µM | TGI [51]: > 1250 µM | TGI [10]: > 1250 µM | TGI [11]: > 1250 µM | TGI [12]: > 1250 µM | TGI [13]: > 1250 µM | TGI [14]: > 1250 µM | TGI [15]: > 1250 µM | TGI [16]: > 1250 µM | TGI [17]: > 1250 µM | TGI [18]: > 1250 µM | TGI [52]: > 1250 µM | TGI [19]: > 1250 µM | TGI [20]: > 1250 µM | TGI [21]: > 1250 µM | TGI [22]: > 1250 µM | TGI [23]: > 1250 µM | TGI [24]: > 1250 µM | TGI [25]: > 1250 µM | TGI [26]: > 1250 µM | TGI [27]: > 1250 µM | TGI [28]: > 1250 µM | TGI [29]: > 1250 µM | TGI [30]: > 1250 µM | TGI [31]: > 1250 µM | TGI [32]: > 1250 µM | TGI [33]: > 1250 µM | TGI [34]: > 1250 µM | TGI [35]: > 1250 µM | TGI [36]: > 1250 µM | TGI [37]: > 1250 µM | TGI [38]: > 1250 µM | TGI [40]: > 1250 µM | TGI [41]: > 1250 µM | TGI [53]: > 1250 µM | TGI [42]: > 1250 µM | TGI [43]: > 1250 µM | TGI [44]: > 1250 µM | TGI [45]: > 1250 µM | TGI [46]: > 1250 µM | TGI [47]: > 1250 µM | TGI [48]: > 1250 µM | TGI [49]: > 1250 µM | TGI [54]: > 1250 µM

Cc1cn(C2CC(OC3CCCCO3)C(CO)O2)c(=O)[nH]c1=O (centres undefined)
TGI [1]: > 100 µM | TGI [55]: > 100 µM | TGI [2]: > 100 µM | TGI [3]: > 100 µM | TGI [5]: > 100 µM | TGI [6]: > 100 µM | TGI [7]: > 100 µM | TGI [9]: > 100 µM | TGI [50]: > 100 µM | TGI [51]: > 100 µM | TGI [10]: > 100 µM | TGI [11]: > 100 µM | TGI [12]: > 100 µM | TGI [13]: > 100 µM | TGI [14]: > 100 µM | TGI [56]: > 100 µM | TGI [15]: > 100 µM | TGI [16]: > 100 µM | TGI [17]: > 100 µM | TGI [18]: > 100 µM | TGI [52]: > 100 µM | TGI [19]: > 100 µM | TGI [20]: > 100 µM | TGI [21]: > 100 µM | TGI [22]: > 100 µM | TGI [23]: > 100 µM | TGI [24]: > 100 µM | TGI [25]: > 100 µM | TGI [26]: > 100 µM | TGI [27]: > 100 µM | TGI [28]: > 100 µM | TGI [57]: > 100 µM | TGI [29]: > 100 µM | TGI [30]: > 100 µM | TGI [31]: > 100 µM | TGI [32]: > 100 µM | TGI [33]: > 100 µM | TGI [34]: > 100 µM | TGI [35]: > 100 µM | TGI [36]: > 100 µM | TGI [37]: > 100 µM | TGI [38]: > 100 µM | TGI [40]: > 100 µM | TGI [41]: > 100 µM | TGI [53]: > 100 µM | TGI [58]: > 100 µM | TGI [43]: > 100 µM | TGI [44]: > 100 µM | TGI [45]: > 100 µM | TGI [46]: > 100 µM | TGI [47]: > 100 µM | TGI [49]: > 100 µM | TGI [54]: > 100 µM
